ChEMBL document CHEMBL5154835, “Design, synthesis and biological evaluation of sulfonamides inhibitors of XPO1 displaying activity against multiple myeloma cells” (Eur J Med Chem, 2022)
One block for each molecule: values may come before it.

Tested on: MM1.S
Assay: Antiproliferative activity against human MM1.S cells assessed as inhibition of cell growth incubated for 4 hrs by CCK-8 assay
Format: functional, cell-based

SMILES: NC(=O)/C(=C/n1cc(Cl)c(-c2cc(C(F)(F)F)cc(C(F)(F)F)c2)n1)c1cncnc1
- IC50: 2240 nM

SMILES: COc1c(F)cc(/C(=C\n2cnc(-c3cc(C(F)(F)F)cc(C(F)(F)F)c3)n2)C(N)=O)cc1F
- IC50: 3470 nM

SMILES: CS(=O)(=O)Nc1cccc(/C(=C\n2cnc(-c3cc(C(F)(F)F)cc(C(F)(F)F)c3)n2)C(N)=O)c1
- IC50: 271 nM

SMILES: NC(=O)/C(=C/n1cnc(-c2cc(C(F)(F)F)cc(C(F)(F)F)c2)n1)c1ccc(NS(=O)(=O)C2CCCCC2)cc1
- IC50: 1270 nM

SMILES: NC(=O)/C(=C/n1cnc(-c2cc(C(F)(F)F)cc(C(F)(F)F)c2)n1)c1cccnc1
- IC50: 194 nM

The remaining molecules from weak to strong by IC50, led by results:

- IC50: 363 nM
SMILES: NC(=O)/C(=C/n1cnc(-c2cc(C(F)(F)F)cc(C(F)(F)F)c2)n1)c1ccc(C(F)(F)F)nc1

- IC50: 359 nM
SMILES: NC(=O)/C(=C/n1cnc(-c2cc(C(F)(F)F)cc(C(F)(F)F)c2)n1)c1cccnc1F
